Results on 8 compounds are retold here after PubChem BioAssay (NCI).

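Protocol summary: plate cells (96-well), add compound at 5 concentrations, incubate 48 h, interpolate endpoints linearly. TGI: concentration producing complete growth inhibition.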

Some test systems named below: OVCAR-8 ovarian; UO-31 renal; SK-OV-3 ovarian; SF-295 CNS; CAKI-1 renal; NCI-H522 lung; T-47D breast; DU-145 prostate; HCT-15 colon; HOP-92 NSCLC; CCRF-CEM leukemia; SNB-19 CNS; SK-MEL-5 melanoma; OVCAR-4 ovarian; MOLT-4 leukemia; IGROV1 ovarian; MDA-MB-435; SK-MEL-2 melanoma; SR leukemia.
Assay in all cases: DTP human tumour cell line panel, 48 h

The term TGI denotes the concentration giving total growth inhibition. Low readings indicate greater sensitivity of the cells, high ones lower sensitivity of the cells. `COc1cc(NCc2ccc3nc(-c4ccccc4)c(N)nc3c2)cc(OC)c1OC`: the TGI was 57.3 µM in the assay with OVCAR-8 ovarian; greater than 100 µM in the assay with UO-31 renal; greater than 100 µM in the assay on SK-OV-3 ovarian; 92.7 µM in the assay on SF-295 CNS; 85.8 µM with CAKI-1 renal; 62.3 µM in the assay on NCI-H522 lung. The TGI in the assay on T-47D breast was 91 µM; in the assay with DU-145 prostate, 99.6 µM; in the assay with HCT-15 colon it was greater than 100 µM; in the assay on HOP-92 NSCLC, 78.1 µM; in the assay on CCRF-CEM leukemia, 77 µM; in the assay with SNB-19 CNS, greater than 100 µM. For the same compound, the TGI was 28.9 µM in the assay on SK-MEL-5 melanoma; greater than 100 µM in the assay on OVCAR-4 ovarian; 58.6 µM in the assay with MOLT-4 leukemia; greater than 100 µM in the assay with IGROV1 ovarian; 50.7 µM in the assay on MDA-MB-435; greater than 100 µM in the assay on SK-MEL-2 melanoma. This compound displayed a TGI in the assay on SR leukemia greater than 100 µM.

For the compound `CCOP1(=O)C=C(Sc2ccc([N+](=O)[O-])cc2[N+](=O)[O-])C(C)(C)O1` (stereo not drawn), the TGI was 35.4 µM in the assay with OVCAR-8 ovarian; 28.3 µM in the assay on UO-31 renal; 66.2 µM in the assay on SK-OV-3 ovarian; 40.8 µM in the assay on SF-295 CNS; 24.8 µM in the assay on CAKI-1 renal; 9.36 µM in the assay on NCI-H522 lung. The TGI in the assay with T-47D breast was 32 µM; in the assay with DU-145 prostate, 26.4 µM; in the assay on HCT-15 colon, 36.7 µM; in the assay on HOP-92 NSCLC, 25.3 µM; with CCRF-CEM leukemia, 16.4 µM; with SNB-19 CNS, greater than 57.8 µM. Also, the TGI with SK-MEL-5 melanoma is 23 µM; with OVCAR-4 ovarian, 28.9 µM; in the assay on MOLT-4 leukemia it was greater than 100 µM; with IGROV1 ovarian, 30.4 µM; with MDA-MB-435, 28.5 µM; in the assay with SK-MEL-2 melanoma, 35.3 µM. Also, in the assay with SR leukemia, the TGI stood at 7.17 µM.

For the compound `COC(=O)C12OC(C)(C(CC(=O)OC(C)(C)C)C1=O)C1C(=O)N(c3ccccc3)C(=O)C12` (stereo not drawn), the concentration for total growth inhibition (TGI) in the assay on OVCAR-8 ovarian, in the assay with UO-31 renal, with SK-OV-3 ovarian, in the assay on SF-295 CNS, in the assay with CAKI-1 renal and in the assay with NCI-H522 lung was greater than 100 µM throughout. Further, the TGI with T-47D breast, with DU-145 prostate, with HCT-15 colon, with HOP-92 NSCLC, with CCRF-CEM leukemia and with SNB-19 CNS was greater than 100 µM in each case. In addition, the TGI in the assay on SK-MEL-5 melanoma, in the assay on OVCAR-4 ovarian, in the assay on MOLT-4 leukemia, in the assay on IGROV1 ovarian, with MDA-MB-435 and in the assay on SK-MEL-2 melanoma was greater than 100 µM throughout. Moreover, the concentration for total growth inhibition (TGI) in the assay on SR leukemia is greater than 100 µM.

With `CN=CN(C)c1c2ccccc2nc2ccccc12`, the TGI is greater than 100 µM with OVCAR-8 ovarian; 28.1 µM in the assay on UO-31 renal; greater than 100 µM with SK-OV-3 ovarian; greater than 100 µM in the assay on SF-295 CNS; greater than 100 µM in the assay on CAKI-1 renal; greater than 100 µM with NCI-H522 lung. In addition, the TGI in the assay on T-47D breast, with DU-145 prostate, with HCT-15 colon, in the assay on HOP-92 NSCLC, with CCRF-CEM leukemia and with SNB-19 CNS was greater than 100 µM in each case. Also, the concentration for total growth inhibition (TGI) with SK-MEL-5 melanoma, with OVCAR-4 ovarian, in the assay with MOLT-4 leukemia, in the assay with IGROV1 ovarian, in the assay with MDA-MB-435 and in the assay with SK-MEL-2 melanoma was greater than 100 µM in each case. For the same compound, the TGI in the assay on SR leukemia was greater than 100 µM.

`NC1CC(N)c2c(Br)sc(Br)c21` (stereo not drawn): the concentration for total growth inhibition (TGI) in the assay on OVCAR-8 ovarian, in the assay with UO-31 renal, with SK-OV-3 ovarian, in the assay on SF-295 CNS, with CAKI-1 renal and in the assay with NCI-H522 lung was greater than 100 µM throughout. Further, the TGI with T-47D breast, with DU-145 prostate, in the assay on HCT-15 colon, in the assay on HOP-92 NSCLC, in the assay on CCRF-CEM leukemia and in the assay with SK-MEL-5 melanoma was greater than 100 µM each time. Besides, the TGI with OVCAR-4 ovarian, in the assay with MOLT-4 leukemia, with IGROV1 ovarian, with MDA-MB-435, with SK-MEL-2 melanoma and in the assay on SR leukemia was greater than 100 µM throughout.

Regarding `C=CC(C)(C)C(=C)C(=O)N(C)c1ccccc1I`, the TGI in the assay on OVCAR-8 ovarian, with UO-31 renal, in the assay with SK-OV-3 ovarian, with SF-295 CNS, with CAKI-1 renal and in the assay with NCI-H522 lung was greater than 100 µM in each case. Further, the TGI with T-47D breast, in the assay with DU-145 prostate, with HCT-15 colon, in the assay with HOP-92 NSCLC, in the assay on CCRF-CEM leukemia and in the assay with SNB-19 CNS was greater than 100 µM in each case. Further, the TGI in the assay on SK-MEL-5 melanoma, in the assay on OVCAR-4 ovarian, in the assay on MOLT-4 leukemia, in the assay on MDA-MB-435, with SK-MEL-2 melanoma and with SR leukemia was greater than 100 µM throughout.

Take `c1ccc(-c2cs[s+]c2)cc1`: the total growth inhibition concentration (TGI) in the assay on OVCAR-8 ovarian, with UO-31 renal, with SK-OV-3 ovarian, in the assay on SF-295 CNS, in the assay on CAKI-1 renal and in the assay on NCI-H522 lung was greater than 100 µM throughout. In addition, the TGI was greater than 100 µM in the assay with T-47D breast; greater than 100 µM in the assay with DU-145 prostate; greater than 100 µM in the assay on HCT-15 colon; greater than 100 µM in the assay with HOP-92 NSCLC; 83.1 µM in the assay on CCRF-CEM leukemia; greater than 100 µM in the assay with SNB-19 CNS. In addition, the TGI is greater than 100 µM in the assay on SK-MEL-5 melanoma; greater than 100 µM in the assay on OVCAR-4 ovarian; 85.6 µM in the assay on MOLT-4 leukemia; greater than 100 µM with IGROV1 ovarian; greater than 100 µM with MDA-MB-435; greater than 100 µM in the assay on SR leukemia.

Regarding `C=CCOc1ccc(/C(N=Nc2ccccc2)=N/NC(=O)c2ccccc2)cc1OC`, the TGI in the assay on OVCAR-8 ovarian, with UO-31 renal, in the assay with SF-295 CNS, with CAKI-1 renal, in the assay on NCI-H522 lung and in the assay on T-47D breast was greater than 100 µM throughout. Also, the TGI in the assay with DU-145 prostate, with HCT-15 colon, in the assay on HOP-92 NSCLC, with CCRF-CEM leukemia, with SNB-19 CNS and with SK-MEL-5 melanoma was greater than 100 µM in each case. In addition, the TGI in the assay on OVCAR-4 ovarian, in the assay with MOLT-4 leukemia, in the assay on IGROV1 ovarian, with MDA-MB-435, in the assay with SK-MEL-2 melanoma and with SR leukemia was greater than 100 µM throughout.
